Tests used:
[1] = tissue homogenate binding by ultrafiltration; assay type: in vitro ADME, mice
Experimental: After centrifugation of mixtures from tissue or microsomal incubations for 15 min at 4 °C, the supernatants were filtered through a 0.2 -µm-pore-size syringe filter and stored in the autosampler at 6 °C until analysis by LC-MS/MS as […]
SM5 Tissue binding of SH045
The tissue binding of SH045 was analyzed exemplarily in lung, liver and kidney homogenate using ultrafiltration [5]. Appropriate concentrations of homogenate and SH045 were optimized out of data from a series of various dilution ratios of tissue homogenates (1/2, 1/5, 1/10 and 1/20, w/v) and SH045 concentrations in spiked homogenate (liver and kidney: 0.05, 0.1, 0.5, 1, 2, 5 µg/mL; lung: 1, 2, 5, 10, 20, 50 µg/mL, not shown). Tissue binding assays were performed as follows: 448 µL tissue homogenates (1/10, w/v) were mixed with 2 µL SH045 (final: 50 µg/ml for lung, 2 µg/ml for liver and 1 µg/ml kidney). After incubation for 15 min at 37 °C at 450 rpm, 400 µL of the mixture was transferred to centrifugal filter units (30kDa) and centrifuged for 20 min at 2000g and 37 °C. 20 µL of the mixture and the filtrate were analyzed for SH045. The concentration in the filtrate refers to the unbound SH045 concentration according to tissue binding (%) = (ctot – cfiltrate) / ctotal × 100%. […]
Mean maximum rate vmax and Michaelis- […]
CLint,micr the intrinsic clearance CLint, equal to the maximum enzyme activity of liver and for in vitro-in vivo exploration of hepatic clearance CLhep in mouse and human using the “well-stirred” model [6].
(§1) SM7 Identification of metabolism pathways and metabolites of SH045 in MLM and HLM To determine possible metabolism pathways of SH045 in MLM and HLM, an in vitro inhibition approach was performed with CYP-isoform specific inhibitors (final concentration): ciprofloxacin (CYP1A2; 150 µM), pilocarpine (CYP2A6; 50 µM), ticlopidine (CYP2B6; 5 µM), quercetin (CYP2C8; 2 µM), sulfaphenazole (CYP2C9; 10 µM), fluvoxamine (CYP2C19; 10 µM), quinidine (CYP2D6; 10 µM), 4-methyl pyrazole (CYP2E1; 100 µM) and ketoconazole (CYP3A4; 1 µM) [7, 8]. […]

[2] = time-dependent metabolization (stability) in HLM and IVIVE of hepatic clearance; assay type: in vitro ADME, human
Text: In the widely used concept of the “well-stirred” model, liver represents a single uniform compartment. It is further assumed that the concentration of unbound SH045 leaving the liver is in equilibrium with its unbound concentration in hepatocytes (detailed calculation in Supplementary Materials SM8, summarized values in SR4). Briefly, microsomal intrinsic clearance was converted to hepatic clearance: CLhep = Q × fu × CLint/Q + (fu × CLint), where fu is the unbound fraction of SH045 in blood and Q is the hepatic blood flow in mice.
For this purpose, remaining concentrations of SH045 in microsomes were determined to calculate the intrinsic microsomal clearance CLint,micr, the intrinsic clearance CLint, equal to the maximum enzyme activity of liver and for in vitro-in vivo exploration of hepatic clearance CLhep in mouse and human using the well-stirred model. The algorithm for these calculations is given in detail in the Supplementary Materials SM8. […]
All microsome incubations were stopped with 1 mL ice -cold ACN containing 5 µg/mL IS, vortexed for 1 min and cooled at -20 °C for 10 min. […]
2 µL SH045 (final concentration 0.5 – 100 µM, in triplicate), 12.5 µL HLM or MLM (finally 0.5 mg/mL protein) and 460.5 µL DPBS were vortexed and preincubated 37 °C for 5 min. The reaction was initiated by addition of 25 µL analogously pre-incubated β-NADPH (finally: 1 mM). […]
Testosterone (10 µM in ACN/DPBS 2/3, v/v) instead of SH045 was used as positive control and analyzed by an appropriate HPLC method with UV detection.
Negative controls contained either no NADPH, no MLM or HLM or none of them. […]
Mean maximum rate vmax and Michaelis-Menten constant Km were calculated using Lineweaver-Burk transformation. From Km an appropriate drug concentration of 2 µM was derived as prerequisite for experimental in vitro determination of t1/2 required for further exploration of clearance.
For this purpose, microsomes were incubated as described above with 2 µM SH045 for indicated time intervals up to 30 min. The remaining concentrations of SH045 were determined to calculate the intrinsic microsomal clearance CLint,micr the intrinsic clearance CLint, equal to the maximum enzyme activity of liver and for in vitro-in vivo exploration of hepatic clearance CLhep in mouse and human using the “well-stirred” model [6].
as §1, with “8]. The inhibitors were dissolved in DPBS and appropriate methanol, the organic solvents not” for “8].”
SH045 (2 µM) was pre-incubated with MLM or HLM (0.5 mg/mL) and the specific inhibitor for 5 min at 37 °C in DPBS.
Ticlopidine, a time-dependent inhibitor was pre-incubated for 15 min [9]. Incubations were performed in triplicate with NADPH (1 mM) in a final volume of 500 µL for 2 min and 10 min with pre-incubated MLM and HLM, respectively, terminated with 1 mL ice-cold ACN and processed as described above for LC-MS/MS. A sample without any inhibitor served as a positive control. […]

[3] = test system: ischemic lungs explanted from mice; parameters: method as in PMID 29522264; details: ex vivo; cited from earlier work

`C=C[C@@](C)(O)CC[C@H]1C(=C)C[C@H](OC(=O)NC)[C@H]2C(C)(C)CCC[C@]12C` [SH045, (1S,4S,4aR,8aS)-4-((S)-3-Hydroxy-3-methylpent-4-en-1-yl)-4a,8,8-trimethyl-3-methylenedecahydronaphthalen-1-yl methylcarbamate] gave a Tissue binding ([1]; kidney) of 98%, a Tissue binding ([1]; liver) of 97% and a Tissue binding ([1]; lung) of 97%. The CLint scaled at 2 µM ([2]; human, liver microsomes, scaled from CLint,micr) was 334 mL/min/kg, the CLhep ([2]; human, predicted by well-stirred model, Q 21 mL/min/kg) was 0.96 mL/min/kg and the CLint ([2]; human, scaled from CLint,micr) was 334.6 mL/min/kg. The half-life at 2 µM ([2]; pH 7.4, human liver microsomes 0.5 mg/mL, 2 µM SH045, NADPH) was 4.85 min, the microsomal CLint at 2 µM ([2]; pH 7.4, human liver microsomes, read-out: CLint, micr) was 286 µL/min/mg and the “edema formation after reperfusion” value [3] was “reduced edema formation”.
